{"source": "patent US11053204B2", "about": "“Pyrimidinyloxy benzene derivatives as herbicides” (FMC Corporation, priority 2015, dated 2021)", "type_in_all_cases": "in vivo", "key": {"[1]": {"system": "barnyardgrass (Echinochloa crus-galli)", "test": "Test C postemergence, plant response rating", "details": "Echinochloa crus-galli, post-emergence", "method_in_brief": "(§1)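 Both timings shared one formulation, a non-phytotoxic solvent mixture with surfactant, and a greenhouse period of 13 to 15 d. Preemergence used seeded loam/sand or silt loam soil, postemergence used 2 to 18 cm plants; visual ratings ran from 0 (no effect) to 100 (complete control).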"}, "[2]": {"system": "foxtail, giant (giant foxtail, Setaria faberii)", "test": "Test C postemergence, plant response rating", "details": "Setaria faberi, post-emergence", "method_in_brief": "as §1"}, "[3]": {"system": "lambsquarters (Chenopodium album)", "test": "Test C postemergence, plant response rating", "details": "Chenopodium album, post-emergence", "method_in_brief": "as §1"}, "[4]": {"system": "oilseed rape (Brassica napus)", "test": "Test C postemergence, plant response rating", "details": "Brassica napus, post-emergence", "method_in_brief": "as §1"}, "[5]": {"system": "crabgrass, large (large crabgrass, Digitaria sanguinalis)", "test": "Test C postemergence, plant response rating", "details": "Digitaria sanguinalis, post-emergence", "method_in_brief": "as §1"}, "[6]": {"system": "blackgrass (Alopecurus myosuroides)", "test": "Test C postemergence, plant response rating", "details": "Alopecurus myosuroides, post-emergence", "method_in_brief": "as §1"}, "[7]": {"system": "wheat (winter wheat, Triticum aestivum)", "test": "Test C postemergence, plant response rating", "details": "Triticum aestivum, post-emergence", "method_in_brief": "as §1"}, "[8]": {"system": "ryegrass, Italian (Italian ryegrass, Lolium multiflorum)", "test": "Test C postemergence, plant response rating", "details": "Lolium multiflorum, post-emergence", "method_in_brief": "as §1"}, "[9]": {"system": "oat, wild (wild oat Avena fatua)", "test": "Test C postemergence, plant response rating", "details": "Avena fatua, post-emergence", "method_in_brief": "as §1"}, "soybean (Glycine max)": {"system": "soybean (Glycine max)", "test": "Test C postemergence, plant response rating", "details": "Glycine max, post-emergence", "method_in_brief": "as §1"}, "[10]": {"system": "chickweed (common chickweed, Stellaria media)", "test": "Test C postemergence, plant response rating", "details": "Stellaria media, post-emergence", "method_in_brief": "as §1"}, "[11]": {"system": "morningglory (Ipomoea coccinea)", "test": "Test C postemergence, plant response rating", "details": "Ipomoea, post-emergence", "method_in_brief": "as §1"}, "kochia (Kochia scoparia) [12]": {"system": "kochia (Kochia scoparia)", "test": "Test C postemergence, plant response rating", "details": "Bassia scoparia, post-emergence", "method_in_brief": "as §1"}, "[13]": {"system": "nutsedge, yellow (yellow nutsedge, Cyperus esculentus)", "test": "Test C postemergence, plant response rating", "details": "Cyperus, post-emergence", "method_in_brief": "as §1"}, "corn (Zea mays)": {"system": "corn (Zea mays)", "test": "Test C postemergence, plant response rating", "details": "Zea mays, post-emergence", "method_in_brief": "as §1"}, "[14]": {"system": "barnyardgrass (Echinochloa crus-galli)", "test": "Test A preemergence, visual injury rating", "details": "Echinochloa crus-galli, pre-emergence, 240 h, 0 to 100 scale (0 no effect, 100 complete control), read-out: Barnyardgrass plant response rating", "method_in_brief": "(§2)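 Visual injury scored 0–100 (100 = complete control) against untreated controls about 10 days after treatment in a greenhouse. Test chemicals, formulated with surfactant in non-phytotoxic solvent, were sprayed on soil preemergence or on 2-10 cm, one- to two-leaf plants postemergence.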"}, "kochia (Kochia scoparia) [15]": {"system": "kochia (Kochia scoparia)", "test": "Test A preemergence, visual injury rating", "details": "Bassia scoparia, pre-emergence, 240 h, 0 to 100 scale (0 no effect, 100 complete control), read-out: Kochia plant response rating", "method_in_brief": "as §2"}, "[16]": {"details": "62 g ai/ha, scale 0 to 100 (0 no effect, 100 complete control)"}, "[17]": {"details": "125 g ai/ha, scale 0 to 100 (0 no effect, 100 complete control)"}}}
{"compound": "CC(CC(F)(F)F)OC(=O)c1c(Br)cccc1Oc1ncc(Cl)cn1", "note": "(stereo not shown) [Compound 16, 3,3,3-trifluoro-1-methylpropyl 2-bromo-6-[(5-chloro-2-pyrimidinyl)oxy]benzoate]", "values": [{"measurement": "pest or weed control at 16 g/ha", "setting": "[1]; 16 g ai/ha, scale 0 to 100", "value": 5, "unit": "%"}, {"measurement": "pest or weed control at 31 g/ha", "setting": "[1]; 31 g ai/ha, scale 0 to 100", "value": 10, "unit": "%"}, {"measurement": "pest or weed control at 62 g/ha", "setting": "[1]; [16]", "value": 20, "unit": "%"}, {"measurement": "pest or weed control at 125 g/ha", "setting": "[1]; [17]", "value": 20, "unit": "%"}, {"measurement": "pest or weed control at 16 g/ha", "setting": "[2]; 16 g ai/ha, scale 0 to 100", "value": 10, "unit": "%"}, {"measurement": "pest or weed control at 31 g/ha", "setting": "[2]; 31 g ai/ha, scale 0 to 100", "value": 20, "unit": "%"}, {"measurement": "pest or weed control at 62 g/ha", "setting": "[2]; [16]", "value": 30, "unit": "%"}, {"measurement": "pest or weed control at 125 g/ha", "setting": "[2]; [17]", "value": 35, "unit": "%"}, {"measurement": "pest or weed control at 16 g/ha", "setting": "[3]; 16 g ai/ha, scale 0 to 100", "value": 40, "unit": "%"}, {"measurement": "pest or weed control at 31 g/ha", "setting": "[3]; 31 g ai/ha, scale 0 to 100", "value": 50, "unit": "%"}, {"measurement": "pest or weed control at 62 g/ha", "setting": "[3]; [16]", "value": 40, "unit": "%"}, {"measurement": "pest or weed control at 125 g/ha", "setting": "[3]; [17]", "value": 60, "unit": "%"}, {"measurement": "plant injury at 16 g/ha", "setting": "[4]; 16 g ai/ha, scale 0 to 100", "value": 15, "unit": "%"}, {"measurement": "plant injury at 31 g/ha", "setting": "[4]; 31 g ai/ha, scale 0 to 100", "value": 35, "unit": "%"}, {"measurement": "plant injury at 62 g/ha", "setting": "[4]; [16]", "value": 60, "unit": "%"}, {"measurement": "plant injury at 125 g/ha", "setting": "[4]; [17]", "value": 70, "unit": "%"}, {"measurement": "pest or weed control at 16 g/ha", "setting": "[5]; 16 g ai/ha, scale 0 to 100", "value": 10, "unit": "%"}, {"measurement": "pest or weed control at 31 g/ha", "setting": "[5]; 31 g ai/ha, scale 0 to 100", "value": 15, "unit": "%"}, {"measurement": "pest or weed control at 62 g/ha", "setting": "[5]; [16]", "value": 25, "unit": "%"}, {"measurement": "pest or weed control at 125 g/ha", "setting": "[5]; [17]", "value": 25, "unit": "%"}, {"measurement": "pest or weed control at 16 g/ha", "setting": "[6]; 16 g ai/ha, scale 0 to 100", "value": 0, "unit": "%"}, {"measurement": "pest or weed control at 31 g/ha", "setting": "[6]; 31 g ai/ha, scale 0 to 100", "value": 0, "unit": "%"}, {"measurement": "pest or weed control at 62 g/ha", "setting": "[6]; [16]", "value": 0, "unit": "%"}, {"measurement": "pest or weed control at 125 g/ha", "setting": "[6]; [17]", "value": 5, "unit": "%"}, {"measurement": "plant injury at 16 g/ha", "setting": "[7]; 16 g ai/ha, scale 0 to 100", "value": 0, "unit": "%"}, {"measurement": "plant injury at 31 g/ha", "setting": "[7]; 31 g ai/ha, scale 0 to 100", "value": 0, "unit": "%"}, {"measurement": "plant injury at 62 g/ha", "setting": "[7]; 62 g ai/ha, scale 0 to 100 (0 no effect, 100 complete control), read-out: Wheat plant response rating", "value": 0, "unit": "%"}, {"measurement": "plant injury at 125 g/ha", "setting": "[7]; [17]", "value": 0, "unit": "%"}, {"measurement": "pest or weed control at 16 g/ha", "setting": "[8]; 16 g ai/ha, scale 0 to 100", "value": 0, "unit": "%"}, {"measurement": "pest or weed control at 31 g/ha", "setting": "[8]; 31 g ai/ha, scale 0 to 100", "value": 0, "unit": "%"}, {"measurement": "pest or weed control at 62 g/ha", "setting": "[8]; [16]", "value": 0, "unit": "%"}, {"measurement": "pest or weed control at 125 g/ha", "setting": "[8]; [17]", "value": 5, "unit": "%"}, {"measurement": "pest or weed control at 16 g/ha", "setting": "[9]; 16 g ai/ha, scale 0 to 100", "value": 0, "unit": "%"}, {"measurement": "pest or weed control at 31 g/ha", "setting": "[9]; 31 g ai/ha, scale 0 to 100", "value": 5, "unit": "%"}, {"measurement": "pest or weed control at 62 g/ha", "setting": "[9]; [16]", "value": 5, "unit": "%"}, {"measurement": "pest or weed control at 125 g/ha", "setting": "[9]; [17]", "value": 10, "unit": "%"}, {"measurement": "plant injury at 16 g/ha", "setting": "soybean (Glycine max); 16 g ai/ha, scale 0 to 100", "value": 15, "unit": "%"}, {"measurement": "plant injury at 31 g/ha", "setting": "soybean (Glycine max); 31 g ai/ha, scale 0 to 100", "value": 35, "unit": "%"}, {"measurement": "plant injury at 62 g/ha", "setting": "soybean (Glycine max); [16]", "value": 50, "unit": "%"}, {"measurement": "plant injury at 125 g/ha", "setting": "soybean (Glycine max); [17]", "value": 50, "unit": "%"}, {"measurement": "pest or weed control at 16 g/ha", "setting": "[10]; 16 g ai/ha, scale 0 to 100", "value": 20, "unit": "%"}, {"measurement": "pest or weed control at 31 g/ha", "setting": "[10]; 31 g ai/ha, scale 0 to 100", "value": 20, "unit": "%"}, {"measurement": "pest or weed control at 62 g/ha", "setting": "[10]; [16]", "value": 50, "unit": "%"}, {"measurement": "pest or weed control at 125 g/ha", "setting": "[10]; [17]", "value": 80, "unit": "%"}, {"measurement": "pest or weed control at 16 g/ha", "setting": "[11]; 16 g ai/ha, scale 0 to 100", "value": 5, "unit": "%"}, {"measurement": "pest or weed control at 31 g/ha", "setting": "[11]; 31 g ai/ha, scale 0 to 100", "value": 30, "unit": "%"}, {"measurement": "pest or weed control at 62 g/ha", "setting": "[11]; [16]", "value": 40, "unit": "%"}, {"measurement": "pest or weed control at 125 g/ha", "setting": "[11]; [17]", "value": 75, "unit": "%"}, {"measurement": "pest or weed control at 16 g/ha", "setting": "kochia (Kochia scoparia) [12]; 16 g ai/ha, scale 0 to 100", "value": 40, "unit": "%"}, {"measurement": "pest or weed control at 31 g/ha", "setting": "kochia (Kochia scoparia) [12]; 31 g ai/ha, scale 0 to 100", "value": 50, "unit": "%"}, {"measurement": "pest or weed control at 62 g/ha", "setting": "kochia (Kochia scoparia) [12]; [16]", "value": 80, "unit": "%"}, {"measurement": "pest or weed control at 125 g/ha", "setting": "kochia (Kochia scoparia) [12]; [17]", "value": 90, "unit": "%"}, {"measurement": "pest or weed control at 16 g/ha", "setting": "[13]; 16 g ai/ha, scale 0 to 100", "value": 0, "unit": "%"}, {"measurement": "pest or weed control at 31 g/ha", "setting": "[13]; 31 g ai/ha, scale 0 to 100", "value": 5, "unit": "%"}, {"measurement": "pest or weed control at 62 g/ha", "setting": "[13]; [16]", "value": 10, "unit": "%"}, {"measurement": "pest or weed control at 125 g/ha", "setting": "[13]; [17]", "value": 20, "unit": "%"}, {"measurement": "Corn plant response rating (crop injury, 0 = no effect, 100 = complete kill) at 16 g/ha", "setting": "corn (Zea mays); 16 g ai/ha, scale 0 to 100", "value": 5, "unit": "%"}, {"measurement": "Corn plant response rating (crop injury, 0 = no effect, 100 = complete kill) at 31 g/ha", "setting": "corn (Zea mays); 31 g ai/ha, scale 0 to 100", "value": 15, "unit": "%"}, {"measurement": "plant injury at 62 g/ha", "setting": "corn (Zea mays); [16]", "value": 15, "unit": "%"}, {"measurement": "plant injury at 125 g/ha", "setting": "corn (Zea mays); [17]", "value": 20, "unit": "%"}, {"measurement": "pest or weed control at 125 g/ha", "setting": "[14]; 125 g ai/ha", "value": 30, "unit": "%"}, {"measurement": "pest or weed control at 500 g/ha", "setting": "[14]; 500 g ai/ha", "value": 100, "unit": "%"}, {"measurement": "pest or weed control at 125 g/ha", "setting": "kochia (Kochia scoparia) [15]; 125 g ai/ha", "value": 90, "unit": "%"}, {"measurement": "pest or weed control at 500 g/ha", "setting": "kochia (Kochia scoparia) [15]; 500 g ai/ha", "value": 80, "unit": "%"}]}
